In PubChem BioAssay AID397 (SGCOxCompounds, 2006):

These compounds were tested against GTP-binding protein GEM (Homo sapiens) (UniProt P55040) (assay: GEM binders by thermal shift, biophysical, DSF, SYPRO orange, purified protein (AID 397)). Conditions: at 10 µM, protein 2 µM, buffer 10 mM HEPES, pH 7.5, NaCl 150 mM, DTT 1 mM, GDP 40 µM, MgCl 1 mM, active compounds read high.
GTP-binding protein GEM (Homo sapiens), sequence (P55040 whole entry, looked up): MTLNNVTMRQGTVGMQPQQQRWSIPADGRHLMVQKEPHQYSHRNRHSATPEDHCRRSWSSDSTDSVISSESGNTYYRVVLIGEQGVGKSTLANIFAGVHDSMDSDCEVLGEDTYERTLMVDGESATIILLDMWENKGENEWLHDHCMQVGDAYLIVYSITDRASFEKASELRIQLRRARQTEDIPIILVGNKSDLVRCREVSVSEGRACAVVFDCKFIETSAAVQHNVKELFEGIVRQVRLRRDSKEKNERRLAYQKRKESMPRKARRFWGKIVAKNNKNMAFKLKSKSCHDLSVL

`O=C1NC(=O)c2c1c1c3ccccc3[nH]c1c1[nH]c3cc(Br)ccc3c21` was tested, and the Tm shift was 3.1 Celsius.

Same assay, conditions: at 10 µM, protein 2 µM, buffer 10 mM HEPES, pH 7.5, NaCl 150 mM, DTT 1 mM, active compounds read high

Compared with `O=c1c(-c2ccc(O)cc2)coc2cc(O)cc(O)c12`, `O=c1cc(-c2ccc(O)cc2)oc2cc(O)cc(O)c12` is lower in Tm shift: 5 Celsius for the first, 4.1 Celsius for the second.

Compared with `CN(C)CCCn1cc(C2=C(c3c[nH]c4ccccc34)C(=O)NC2=O)c2ccccc21`, `NC(=O)c1ccc(-c2nc(-c3ccc4c(c3)OCCO4)c(-c3ccccn3)[nH]2)cc1` is higher in Tm shift: 3.2 Celsius for the first, 4.5 Celsius for the second.

First: COc1cc2ncnc(Nc3cccc(Br)c3)c2cc1OC
Second: Nc1cc2ncnc(Nc3cccc(Br)c3)c2cc1N
The Tm shift of the first is higher: 5.4 Celsius for the first, 3.5 Celsius for the second.

`NC1=N/C(=C2/CCNC(=O)c3[nH]c(Br)cc32)C(=O)N1` and `CN(C)S(O)(O)c1ccc2c(c1)/C(=C/c1cc3c([nH]1)CCCC3)C(=O)N2` are the same in Tm shift: 3.1 Celsius for the first, 3.1 Celsius for the second.

Compared with `Oc1ccc(-c2nc(-c3ccc(F)cc3)c(-c3ccncc3)[nH]2)cc1`, `COC(=O)/C=C/c1cc(O)ccc1O` is lower in Tm shift: 6 Celsius for the first, 3.2 Celsius for the second.

Same assay, conditions: at 10 µM, protein 2 µM, buffer 10 mM HEPES, pH 7.5, NaCl 150 mM, DTT 1000 µM, with dithiothreitol, active compounds read high

Compared with `C/C(O)=C(\C#N)C(=O)Nc1cc(Br)ccc1Br`, `N#CC(Cc1ccc(O)c(O)c1)C(=O)Nc1ccccc1` (stereo unspecified) is higher in Tm shift: 2.2 Celsius for the first, 2.7 Celsius for the second.

Compared with `Oc1cc(O)cc(/C=C/c2ccc(O)c(O)c2)c1`, `C=C(Nc1cc(NC(=O)c2cccc(N(C)C)c2)ccc1C)c1ccc(O)cc1` is higher in Tm shift: 2.3 Celsius for the first, 2.8 Celsius for the second.

`Nc1[nH]nc2nc3ccccc3nc12` and `O=C1Nc2ccccc2/C1=C\c1cnc[nH]1` are the same in Tm shift: 2.5 Celsius for the first, 2.5 Celsius for the second.

Compared with `Ic1cccc(CSc2nnc(-c3ccncc3)o2)c1`, `CCCCc1c(-c2ccc(O)cc2)[nH]c2nccnc12` is higher in Tm shift: 2.4 Celsius for the first, 2.7 Celsius for the second.

First: CC(O)(O)C1(O)C[C@@H]2O[C@@]1(C)n1c3ccccc3c3c4c(c5c6ccccc6n2c5c31)C(=O)NC4 (stereo partly specified)
Second: O=S(=O)(c1cccc2c(Cl)cccc12)N1CCCNCC1
The Tm shift of the first is higher: 3 Celsius for the first, 2.8 Celsius for the second.

Compared with `N#C/C(=C(/N)Sc1ccc(N)cc1)c1ccccc1C(F)(F)F`, `CC[C@H](CO)Nc1nc(NCc2ccccc2)c2ncn(C(C)C)c2n1` is lower in Tm shift: 2.8 Celsius for the first, 2.1 Celsius for the second.

First: CC(C)(C)c1nc2c3cc[nH]c(=O)c3c3cc(F)ccc3c2[nH]1
Second: CC(C)n1cnc2c(Nc3cccc(Cl)c3)nc(NCCO)nc21
The Tm shift of the first is higher: 3 Celsius for the first, 2.3 Celsius for the second.

Same assay, conditions: at 10 µM, protein 2 µM, buffer 10 mM HEPES, pH 7.5, NaCl 150 mM, GDP 40 µM, active compounds read high

Compared with `Brc1c(Br)c(Br)c2n[nH]nc2c1Br`, `COc1cc(/C=C/C(=O)CC(=O)/C=C/c2ccc(O)c(OC)c2)ccc1O` is lower in Tm shift: 2.5 Celsius for the first, 2.4 Celsius for the second.

Work on `COc1cc(O)c2c(c1)oc(=O)c1c3cc(O)c(O)cc3oc21` yielded a Tm shift of 2.3 Celsius.

Same assay, conditions: at 10 µM, protein 2 µM, buffer 10 mM HEPES, pH 7.5, NaCl 150 mM, active compounds read high

Compared with `Cc1ccc(NC(=O)c2snc3c(=O)[nH]cnc23)cc1`, `CCOc1c(Br)ccc2c1sc1nc[nH]c(=O)c12` is higher in Tm shift: 2.1 Celsius for the first, 3.1 Celsius for the second.

`Cc1ccc2c(c1Br)C(=Nc1ccc(Cl)cc1)C(=O)N2` gave a Tm shift of 2.3 Celsius.
